In data set [1] the target is T1, human CCR6 (Homo sapiens, UniProt P51684).
T1 construct: expressed in transfected cells; host or cells: HEK293
T1 sequence (P51684 1-374): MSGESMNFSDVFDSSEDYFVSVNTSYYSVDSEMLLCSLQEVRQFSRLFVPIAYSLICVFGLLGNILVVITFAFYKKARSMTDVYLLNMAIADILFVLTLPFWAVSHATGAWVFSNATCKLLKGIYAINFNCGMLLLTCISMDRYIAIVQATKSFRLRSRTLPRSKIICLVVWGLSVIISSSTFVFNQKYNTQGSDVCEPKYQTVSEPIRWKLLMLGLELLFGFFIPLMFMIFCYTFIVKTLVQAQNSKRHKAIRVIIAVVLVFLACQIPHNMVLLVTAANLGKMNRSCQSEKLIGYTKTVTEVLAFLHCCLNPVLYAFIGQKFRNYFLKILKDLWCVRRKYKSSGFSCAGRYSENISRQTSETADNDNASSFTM
Put plainly: human CCR6 calcium flux activity (FLIPR, HEK293 cells stably expressing human CCR6, CCL20 stimulation). It counts as cell-based. The conditions noted are these: for IC50: HEK293 cells stably expressing human CCR6, EC80 human MIP-3 alpha/CCL20, read-out: CCR6 inhibitory activity, IC50; for CCR6 selectivity: ratio of CXCR2 IC50 to CCR6 IC50. Put shortly: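 Read-out is the RFUMax−RFUMin calcium signal (494/516 nm, 90 s) after EC80 CCL20 addition, fitted four-parameter for IC50. Before agonist, Fluo-4 Direct-loaded cells sat with compound 50 min at 37 °C plus 10 min at room temperature.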
(Calcium assays in cells follow changes in intracellular calcium, usually with a dye or a luminescent sensor.)

A short description of data set [2]: in vitro liver microsome metabolic stability, beagle dog. It counts as in vitro ADME. The conditions noted are these: Beagle dog liver microsomes, 37°C. In outline: (§1)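 Test compound at 1 µM final (100 µM working solution diluted 1:100) incubated at 37°C with liver microsomes in pH 7.4 phosphate buffer with NADP/G6P/G6PDH/MgCl2 regenerating system; sampled 0–30 min, LC-MS/MS vs internal standard. T1/2 = 0.693/k from remaining-fraction decay.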

Data set [3] is described as follows: in vitro liver microsome metabolic stability, human. The conditions noted are these: Human liver microsomes, 37°C. It counts as in vitro ADME. Put shortly:
as §1

These results are taken from patent EP4703354A1, “COMPOUND AS CCR6 ANTAGONIST, AND PHARMACEUTICAL COMPOSITION AND USE THEREOF” (Wuhan Createrna Science and Technology Co.,Ltd., priority 2023, dated 2024).

SMILES strings stand for the structures. A value given as a limit tells only on which side of the number the result lay.

On to `CN(C)C(=O)c1nccc(Nc2c(N[C@@H](C#CC3CCC3)[C@]3(C)CC(F)(F)CO3)c(=O)c2=O)c1O` (single isomer, unassigned) [110A], for which, in data set [1], the IC50 (usually the point on the concentration scale where inhibition reaches its midpoint) is 9.3 nM and the CCR6 selectivity is 32.0. In addition, the “Liver microsome T1-2 (min) Beagle dog” value in data set [2] stood at 358.15 min. The “Liver microsome T1-2 (min) Human” value in data set [3] came to 641.85 min.

For `CN(C)C(=O)c1nccc(Nc2c(N[C@@H](c3nc(Cl)ccc3F)[C@@]3(C)CC(F)(F)CO3)c(=O)c2=O)c1O` [068B, 4-((2-(((S)-(6-chloro-3-fluoropyridin-2-yl)((R)-4,4-difluoro-2-methyltetrahydrofuran-2-yl)methyl)amino)-3,4-dioxocyclobut-1-en-1-yl)amino)-3-hydroxy-N,N-dimethylpicolinamide], in data set [1], the IC50 was 5.3 nM and the CCR6 selectivity amounted to 1440.2. The “Liver microsome T1-2 (min) Beagle dog” value in data set [2] stood at 199.34 min. Moreover, in data set [3], the “Liver microsome T1-2 (min) Human” value amounted to 995.19 min.

Take `Cc1cc(F)cnc1[C@H](Nc1c(Nc2ccnc(C(=O)N(C)C)c2O)c(=O)c1=O)[C@]1(C)CC(F)(F)CO1` [093A, 4-((2-(((S)-((S)-4,4-difluoro-2-methyltetrahydrofuran-2-yl)(5-fluoro-3-methylpyridin-2-yl)methyl)amino)-3,4-dioxocyclobut-1-en-1-yl)amino)-3-hydroxy-N,N-dimethylpicolinamide]: in data set [1], the IC50 came to 17.1 nM and the CCR6 selectivity was above 5848.0. Moreover, the “Liver microsome T1-2 (min) Beagle dog” value in data set [2] is 104.27 min. Besides, the “Liver microsome T1-2 (min) Human” value in data set [3] amounted to 359.51 min.

As to `CN(C)C(=O)c1nccc(Nc2c(N[C@@H](c3cccc(Cl)n3)C3(C)CCCC3)c(=O)c2=O)c1O` [compound 003, (R)-4-((2-(((6-chloropyridin-2-yl)(1-methylcyclopentyl)methyl)amino)-3,4-dioxocyclobut-1-en-1-yl)amino)-3-hydroxy-N,N-dimethylpicolinamide], in data set [1], the IC50 came to 22.1 nM and the CCR6 selectivity is listed as 100.0. Also, in data set [3], the “Liver microsome T1-2 (min) Human” value came out at 511.95 min.

Regarding `CN(C)C(=O)c1nccc(Nc2c(N[C@@H](c3ccc(F)cn3)C3(C)CCCC3)c(=O)c2=O)c1O` [compound 005, (R)-4-((2-(((5-fluoropyridin-2-yl)(1-methylcyclopentyl)methyl)amino)-3,4-dioxocyclobut-1-en-1-yl)amino)-3-hydroxy-N,N-dimethylpicolinamide], in data set [1], the IC50 was determined as 10.9 nM and the CCR6 selectivity is 115.0. Moreover, the “Liver microsome T1-2 (min) Beagle dog” value in data set [2] worked out at 254.48 min. Also, the “Liver microsome T1-2 (min) Human” value in data set [3] is listed as 431.17 min.

As to `CN(C)C(=O)c1nccc(Nc2c(N[C@@H](c3ncc(F)cc3F)C3(C)CCCC3)c(=O)c2=O)c1O` [compound 009, (R)-4-((2-(((3,5-difluoropyridin-2-yl)(1-methylcyclopentyl)methyl)amino)-3,4-dioxocyclobut-1-en-1-yl)amino)-3-hydroxy-N,N-dimethylpicolinamide], in data set [1], the IC50 came out at 8 nM and the CCR6 selectivity is 303.4. Besides, the “Liver microsome T1-2 (min) Beagle dog” value in data set [2] was found to be 89.42 min. Besides, the “Liver microsome T1-2 (min) Human” value in data set [3] was found to be 225.37 min.

In the case of `Cc1cccnc1[C@H](Nc1c(Nc2ccc(Cl)c(C(=O)N(C)C)c2O)c(=O)c1=O)C1(C)CCCC1` [compound 063, (R)-6-chloro-2-hydroxy-N,N-dimethyl-3-((2-(((1-methylcyclopentyl)(3-methylpyridin-2-yl)methyl)amino)-3,4-dioxocyclobut-1-en-1-yl)amino)benzamide], in data set [1], the IC50 worked out at 11.7 nM and the CCR6 selectivity was 1310.8. Besides, the “Liver microsome T1-2 (min) Beagle dog” value in data set [2] stood at 202.25 min. In addition, in data set [3], the “Liver microsome T1-2 (min) Human” value is given as 296.47 min.

With `CN(C)C(=O)c1nccc(Nc2c(N[C@@H](c3cccc(CF)n3)C3(C)CCCC3)c(=O)c2=O)c1O` [compound 108, (R)-4-((2-(((6-(fluoromethyl)pyridin-2-yl)(1-methylcyclopentyl)methyl)amino)-3,4-dioxocyclobut-1-en-1-yl)amino)-3-hydroxy-N,N-dimethylpicolinamide], in data set [1], the IC50 was determined as 3.9 nM and the CCR6 selectivity came out at 189.6. Also, in data set [2], the “Liver microsome T1-2 (min) Beagle dog” value came to 63.57 min. In addition, the “Liver microsome T1-2 (min) Human” value in data set [3] was determined as 458.54 min.

In the case of `CC#C[C@H](Nc1c(Nc2ccnc(C(=O)N(C)C)c2O)c(=O)c1=O)C1(C)CCCC1` [compound 113, (R)-3-hydroxy-N, N-dimethyl-4-((2-((1-(1-methylcyclopentyl)but-2-yn-1-yl)amino)-3,4-dioxocyclobut-1-en-1-yl)amino)picolinamide], in data set [1], the IC50 is 49.8 nM and the CCR6 selectivity worked out at 29.7. In addition, in data set [2], the “Liver microsome T1-2 (min) Beagle dog” value is recorded as 520.59 min. The “Liver microsome T1-2 (min) Human” value in data set [3] was found to be 577.09 min.

Take `CC#C[C@H](Nc1c(Nc2ccc(Cl)c(C(=O)N(C)C)c2O)c(=O)c1=O)C1(C)CCCC1` [compound 114, (R)-6-chloro-2-hydroxy-N, N-dimethyl-3-((2-((1-(1-methylcyclopentyl)but-2-yn-1-yl)amino)-3,4-dioxocyclobut-1-en-1-yl)amino)benzamide]: in data set [1], the IC50 is 55.3 nM and the CCR6 selectivity was 26.2. In addition, the “Liver microsome T1-2 (min) Beagle dog” value in data set [2] is recorded as 489.6 min. Moreover, in data set [3], the “Liver microsome T1-2 (min) Human” value was determined as 392.83 min.

Regarding `CN(C)C(=O)c1nccc(Nc2c(N[C@@H](C#CC3CC3)C3(C)CCCC3)c(=O)c2=O)c1O` [compound 115, (R)-4-((2-((3-cyclopropyl-1-(1-methylcyclopentyl)prop-2-yn-1-yl)amino)-3,4-dioxocyclobut-1-en-1-yl)amino)-3-hydroxy-N,N-dimethylpicolinamide], in data set [1], the IC50 was found to be 47.6 nM and the CCR6 selectivity came out at 11.1. For the same compound, the “Liver microsome T1-2 (min) Beagle dog” value in data set [2] turned out to be 1110.44 min. Besides, the “Liver microsome T1-2 (min) Human” value in data set [3] was found to be 247.27 min.
